According to ChEMBL document CHEMBL5257126, “Moderately lipophilic 2-(Het)aryl-6-dithioacetals, 2-phenyl-1,4-benzodioxane-6-dithioacetals and 2-phenylbenzofuran-5-dithioacetals: Synthesis and primary evaluation as potential antidiabetic AMPK-activators” (Bioorg Med Chem, 2023):

What was measured:
[1] = tested on: L6; test: Induction of glucose uptake in rat L6 cells assessed as fold increase by measuring 2-NBDG uptake at 2.5 uM preincubated in high glucose medium for 48 hrs followed by compound addition and measured after 24 hrs; format: functional
[2] = tested on: L6; test: Induction of glucose uptake in rat L6 cells assessed as fold increase by measuring 2-NBDG uptake at 25 uM preincubated in high glucose medium for 48 hrs followed by compound addition and measured after 24 hrs; format: functional
[3] = tested on: L6; test: Induction of glucose uptake in rat L6 cells assessed as fold increase by measuring 2-NBDG uptake at 0.25 uM preincubated in high glucose medium for 48 hrs followed by compound addition and measured after 24 hrs; format: functional
[4] = biological target: T1, Serine/threonine-protein kinase STK11 (Rattus norvegicus) (UniProt D4AE59); test: Activation of LKB1 in rat L6 cells assessed as fold increase in phosphorylation at Ser428 at 25 uM incubated for 24 hrs by Western blot analysis; format: cell-based; conditions: filed as activator
T1 sequence (whole entry): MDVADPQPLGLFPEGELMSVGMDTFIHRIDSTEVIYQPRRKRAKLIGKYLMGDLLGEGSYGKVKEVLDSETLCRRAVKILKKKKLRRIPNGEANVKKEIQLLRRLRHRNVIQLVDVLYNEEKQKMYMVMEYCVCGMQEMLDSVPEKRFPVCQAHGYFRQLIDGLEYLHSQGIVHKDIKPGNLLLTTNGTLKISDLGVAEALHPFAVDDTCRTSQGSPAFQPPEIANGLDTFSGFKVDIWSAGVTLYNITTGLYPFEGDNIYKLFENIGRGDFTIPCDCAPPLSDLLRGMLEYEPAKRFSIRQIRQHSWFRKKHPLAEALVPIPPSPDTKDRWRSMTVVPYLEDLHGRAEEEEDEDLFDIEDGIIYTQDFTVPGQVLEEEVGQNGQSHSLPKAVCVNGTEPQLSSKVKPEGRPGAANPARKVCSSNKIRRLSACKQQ

[5] = biological target: T1, Serine/threonine-protein kinase STK11 (Rattus norvegicus); test: Activation of LKB1 in rat L6 cells assessed as fold increase in phosphorylation at Ser428 at 10 uM incubated for 24 hrs by Western blot analysis; format: cell-based

| SMILES | fold change (FC) [1] | fold change (FC) [2] | fold change (FC) [3] | Activity [4] [%] | Activity [5] [%] |
| --- | --- | --- | --- | --- | --- |
| c1ccc(-c2cc3cc(C4SCCCCS4)ccc3o2)cc1 | 1 | 1.1 | 1 | – | – |
| OCCSC(SCCO)c1ccc2c(c1)OCC(c1ccccc1)O2 (centres undefined) | 1.2 | 1.7 | 1.1 | – | – |
| COc1ccc(C2CCc3cc(C4SCCCCS4)ccc3O2)cc1 (centres undefined) | 1.9 | 2.2 | 1.4 | – | – |
| OCCSC(SCCO)c1ccc2c(c1)CCC(c1cccnc1)O2 (centres undefined) | 1.7 | 1.9 | 1.4 | – | – |
| c1cncc(C2CCc3cc(C4SCCCS4)ccc3O2)c1 (centres undefined) | 1 | 1.3 | 1 | – | – |
| O=C(O)CCSC(SCCC(=O)O)c1ccc2c(c1)CCC(c1ccccc1)O2 (centres undefined) | 1.1 | 1.2 | 0.9 | – | – |
| OCCOCCSC(SCCOCCO)c1ccc2c(c1)CCC(c1ccccc1)O2 (centres undefined) | 1.1 | 1.1 | 1 | – | – |
| c1ccc(C2CCc3cc(C4NCCS4)ccc3O2)cc1 (centres undefined) | 0.9 | 1.2 | 1 | – | – |
| OCCSC(SCCO)c1ccc2c(c1)CCC(c1ccccc1)O2 (centres undefined) | 1 | 1.5 | 1 | – | – |
| c1ccc(C2CCc3cc(C4SCCCCS4)ccc3O2)cc1 (centres undefined) | – | – | – | 80 | 30 |
| c1ccc(-c2cc3cc(C4SCCCS4)ccc3o2)cc1 | 1 | 1.2 | 1 | – | – |
| COc1cccc(C2CCc3cc(C4SCCCS4)ccc3O2)c1 (centres undefined) | 1 | 1.5 | 1 | – | – |
| CC(C)(C)OC(=O)NCCSC(SCCNC(=O)OC(C)(C)C)c1ccc2c(c1)CCC(c1ccccc1)O2 (centres undefined) | 1 | 1 | 1 | – | – |
| c1coc(C2CCc3cc(C4SCCCS4)ccc3O2)c1 (centres undefined) | 1 | 1.2 | 1 | – | – |
| O=C(NCCSC(SCCNC(=O)OCc1ccccc1)c1ccc2c(c1)CCC(c1ccccc1)O2)OCc1ccccc1 (centres undefined) | 1.1 | 1.1 | 0.9 | – | – |
| OCCSC(SCCO)c1ccc2c(c1)CCC(c1ccco1)O2 (centres undefined) | 1 | 1.5 | 1.1 | – | – |
| c1ccc(C2COc3cc(C4SCCCCS4)ccc3O2)cc1 (centres undefined) | 1 | 1.1 | 1 | – | – |
| O[C@H]1CS[C@@H](c2ccc3c(c2)CCC(c2ccccc2)O3)SC1 (some centres undefined) | 1 | 1 | 1.1 | – | – |
| c1ccc(C2COc3cc(C4SCCCS4)ccc3O2)cc1 (centres undefined) | 1 | 1.2 | 1 | – | – |
| O[C@H]1CS[C@H](c2ccc3c(c2)CCC(c2ccccc2)O3)SC1 (some centres undefined) | 0.9 | 1 | 1.1 | – | – |
